{"source": "patent US11919856B2", "about": "“Compounds” (UCL BUSINESS LTD, priority 2018, dated 2024)", "key": {"Z α1-antitrypsin polymer": {"system": "Z α1-antitrypsin polymer", "test": "Liver polymer levels in Z α1-antitrypsin transgenic mice (2C1 staining)", "format": "in vivo, human", "settings": "100 mg/kg three times a day for 20 days", "procedure": "Since Compound 1 blocks polymer formation in cells the effect of dosing Compound 1 on liver polymer levels was explored. It has recently been shown that Z α1-antitrypsin polymers formed in CHO-TET-ON-Z-A1AT and ZZ-iPSC-hepatocytes are cleared from cells with a t½ of between 8 and 48 hours depending on whether they partition to the soluble or insoluble fractions. […] Compound 1 was therefore dosed at 100 mg/kg three times a day as above for 20 days. On days 15 and 21 of dosing, changes of monomeric Z α1-antitrypsin plasma samples were determined as above, and increases of 7- to 8-fold over the pre-dosing baseline levels were observed, similar to the effect in animals dosed for 3 or 6 days, consistent with sustained target engagement through the dosing period. Liver polymer levels were investigated by staining with 2C1 anti-polymer monoclonal antibody and were scored blinded either by a pathologist or by quantification using an algorithm to measure all areas of positive staining. There was no difference observed in total liver polymer load via manual or quantitative scoring.\nTo investigate whether there is a subpopulation of polymer in the liver that was responding to compound over the time frame of the experiment, areas of staining were divided into low, medium and high intensity regions and scored separately for response to compound. […]"}, "neuroserpin": {"biological_target": "T1, neuroserpin (Homo sapiens, UniProt Q99574)", "T1 sequence (Q99574 17-410)": "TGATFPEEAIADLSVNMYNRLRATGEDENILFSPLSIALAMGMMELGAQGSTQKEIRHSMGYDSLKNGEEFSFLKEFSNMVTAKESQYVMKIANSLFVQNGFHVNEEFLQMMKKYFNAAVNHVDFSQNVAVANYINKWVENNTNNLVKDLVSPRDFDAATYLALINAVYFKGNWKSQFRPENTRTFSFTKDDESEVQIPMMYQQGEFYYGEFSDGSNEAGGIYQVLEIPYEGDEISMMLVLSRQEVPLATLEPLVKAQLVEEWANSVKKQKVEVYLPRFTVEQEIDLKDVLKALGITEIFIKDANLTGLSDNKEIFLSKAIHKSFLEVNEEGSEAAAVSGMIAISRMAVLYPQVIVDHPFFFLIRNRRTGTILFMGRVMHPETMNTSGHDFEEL", "test": "Serpin inhibitory activity, neuroserpin", "format": "biochemical", "settings": "incubation with 50 μM", "source_text": "(§1) In order to investigate suitability of Compound 1 for progression into in vivo studies and the potential for taking forward as a clinical candidate for testing in human, Compound 1 was profiled against a panel of in vitro assays for off-targets considered predictive of potential safety liabilities. […] The measured potency of these marginal activities were at least 10-fold below the cellular activity of Compound 1 at blocking Z α1-antitrypsin polymerisation (pEC50 6.3). Loss of inhibitory activity represents a means by which possible off-target engagement with other serpins can be evaluated. However in contrast to α1-antitrypsin upon incubation with 50 μM Compound 1 the inhibitory activity of the homologues antithrombin, neuroserpin and antichymotrypsin was not affected."}, "Z α1-antitrypsin": {"biological_target": "Z α1-antitrypsin (Homo sapiens, UniProt P01009, E366K/V237A)", "sequence (P01009 25-418 V237A/E366K)": "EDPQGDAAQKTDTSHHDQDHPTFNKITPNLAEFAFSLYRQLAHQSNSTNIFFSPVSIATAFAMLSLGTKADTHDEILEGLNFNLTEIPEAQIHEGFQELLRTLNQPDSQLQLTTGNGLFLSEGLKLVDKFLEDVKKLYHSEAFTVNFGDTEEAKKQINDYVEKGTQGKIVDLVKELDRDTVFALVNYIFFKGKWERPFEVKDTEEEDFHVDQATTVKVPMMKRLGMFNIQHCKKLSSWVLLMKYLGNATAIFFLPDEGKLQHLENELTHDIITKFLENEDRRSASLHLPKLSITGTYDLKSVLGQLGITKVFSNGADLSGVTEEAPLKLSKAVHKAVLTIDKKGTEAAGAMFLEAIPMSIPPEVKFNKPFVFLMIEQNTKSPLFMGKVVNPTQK", "test": "Secretion of Z α1-antitrypsin from CHO-TET-ON-Z-A1AT cells (immunoassay of supernatant)", "format": "cell-based", "design": "expressed in transfected cells; host or cells: CHO Tet-On (CHO-K1) cells, doxycycline-induced", "procedure": "CHO Tet-On cells that conditionally express Z α1-antitrypsin (Ordóñez A et al. Hepatology 2013; 57(5):2049-60.) were simultaneously treated with 0.5 μg/mL […] and various concentrations of compounds for 48 hours in 6 well plates. Cells without doxycycline or treated with 1% v/v DMSO acted as controls. The cells were lysed and intracellular Z α1-antitrypsin polymer was evaluated by ELISA sandwich with the 2C1 monoclonal antibody (Miranda et al. Hepatology. 2010; 52:1078-88). Newly synthesised α1-antitrypsin was evaluated by growing cells induced to express Z α1-antitrypsin in DMEM without methionine (Met) and cysteine (Cys) for 1 h and then labelling with 1.3 MBq of ^35S-Met/Cys for 15 min. The cells were then rinsed and incubated in chase medium containing an excess of unlabeled Met and Cys for 0, 2 and 6 h. After the chase period, the medium was collected and cells were harvested. α1-Antitrypsin from the medium and cell lysates was immunoprecipitated with a polyclonal α1-antitrypsin antibody or the 2C1 monoclonal antibody that detects polymers by splitting each sample in two equal parts. Radiolabelled proteins were re-suspended in SDS loading buffer, boiled for 5 min, separated by 10% w/v acrylamide SDS-PAGE, and quantified by autoradiography.\nIts ability to block Z α1-antitrypsin polymerisation in the ER during folding was assessed by adding Compound 1 to CHO-TET-ON-Z-A1AT cells (Ordóñez et al. Hepatology. 2013; 57(5):2049-60) with simultaneous induction of Z α1-antitrypsin expression using doxycycline. […] To investigate whether in addition to blocking polymerisation, Compound 1 was also able to increase secretion of Z α1-antitrypsin, Z α1-antitrypsin expression was induced in CHO-TET-ON-Z-A1AT cells, Compound 1 was added, and the total Z α1-antitrypsin in the supernatant was measured by immunoassay after 6 hours."}, "human serum albumin": {"biological_target": "human serum albumin (Homo sapiens, UniProt P02768)", "sequence (P02768 25-609)": "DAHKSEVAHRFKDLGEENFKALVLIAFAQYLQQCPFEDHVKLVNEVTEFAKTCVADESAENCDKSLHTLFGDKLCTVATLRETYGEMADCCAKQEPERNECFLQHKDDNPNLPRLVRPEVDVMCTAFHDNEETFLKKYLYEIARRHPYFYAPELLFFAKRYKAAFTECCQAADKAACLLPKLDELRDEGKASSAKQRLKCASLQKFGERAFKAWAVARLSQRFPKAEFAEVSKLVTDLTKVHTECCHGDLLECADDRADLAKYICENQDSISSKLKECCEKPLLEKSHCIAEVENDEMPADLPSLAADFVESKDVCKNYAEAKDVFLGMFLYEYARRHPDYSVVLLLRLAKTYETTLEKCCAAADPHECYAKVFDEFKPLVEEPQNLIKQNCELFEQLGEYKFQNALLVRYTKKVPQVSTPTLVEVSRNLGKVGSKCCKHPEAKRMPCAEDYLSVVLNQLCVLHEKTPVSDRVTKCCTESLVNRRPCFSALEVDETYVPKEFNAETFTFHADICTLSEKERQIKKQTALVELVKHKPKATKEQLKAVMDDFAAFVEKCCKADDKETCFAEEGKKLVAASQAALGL", "test": "Binding to human serum albumin", "format": "in vitro ADME"}, "[1]": {"test": "Panel of in vitro assays for off-targets predictive of safety liabilities", "source_text": "as §1"}}, "note": "“Also recorded” adds a separate entry of the source. Like-named read-outs stand apart in the source and are kept apart here."}
{"compound": "CCC[C@@H](NC(=O)c1cccc2c1CC(=O)N2)[C@@H](O)c1cccc(F)c1C", "note": "[Compound 1, N-[(1S,2R)-1-(3-fluoro-2-methylphenyl)-1-hydroxypentan-2-yl]-2-oxo-2,3-dihydro-1H-indole-4-carboxamide]", "values": [{"measurement": "liver polymer staining in low, medium and high intensity regions", "setting": "Z α1-antitrypsin polymer", "value": "No effect"}, {"measurement": "total liver polymer load", "setting": "Z α1-antitrypsin polymer; manual or quantitative scoring", "value": "no difference; also recorded: no reduction"}, {"measurement": "inhibitory activity of neuroserpin", "setting": "neuroserpin", "value": "not affected"}, {"measurement": "EC50", "setting": "Z α1-antitrypsin; CHO-TET-ON-Z-A1AT cells, after 6 hours, read-out: pEC50, secretion of Z α1-antitrypsin (converted)", "value": 501, "unit": "nM"}, {"measurement": "increase of secreted levels of Z α1-antitrypsin", "setting": "Z α1-antitrypsin; CHO-TET-ON-Z-A1AT cells, supernatant after 6 hours, compared to vehicle control", "value": "approximately 3 fold"}, {"measurement": "EC50", "setting": "Z α1-antitrypsin; cellular secretion assay, read-out: EC50 measured for secretion of Z α1-antitrypsin", "value": "~300", "unit": "nM"}, {"measurement": "binding to human serum albumin", "setting": "human serum albumin", "value": 84.2, "unit": "%"}, {"measurement": "activity against off-target panel", "setting": "[1]", "value": "inactive against the majority of these targets"}, {"measurement": "marginal activities in off-target panel", "setting": "[1]", "value": "low level of activity close to the lower limit of sensitivity in 16 assays"}, {"measurement": "potency of marginal off-target activities below cellular activity", "setting": "[1]; relative to cellular activity at blocking Z α1-antitrypsin polymerisation", "value": "at least 10 fold"}]}
